Laboratory results reported in patent US4720494A, “Anticholinergic eucatropine esters and antiperspirant use thereof” (priority 1984, dated 1988).
Several values for one entry are separate records, joined by “and”; a condition that tells them apart may be missing. Equal values may be shown once.

Key:
[1] = system: sweating of mouse foot (pilocarpine-stimulated); assay: Mouse foot antiperspirant assay; format: in vivo, ICR/CD-1 male albino mice; settings: for antiperspirant potency relative to eucatropine (in words): DCC esters, compared with parent eucatropine; for EC50: s.c. 5 μL in foot pad, pilocarpine-stimulated sweating, average EC50
Procedure: For the dose-response determination, four or five groups of 10 ICR/CD-1 male albino mice weighing approximately 20 gm were used. The animals were anaesthetized with 0.20 mL of a 250 mg/mL solution of ethyl carbamate injected intraperitoneally. Anticholinergic test solutions using 0.9% aqueous sodium chloride were injected subcutaneously under the plantar foot pads of the right hind feet of 10 mice per concentration. The 26 gauge, 2 in. needle of a Hamilton 5 μL syringe was inserted at the rear of the plantar surface and threaded forward. The dose, 5 μL, was delivered subcutaneously near the interdigital foot pads. Subsequently, both hind feet were coated with a 1:1 suspension of soluble starch in 2% ethanolic iodine-castor oil.
At 5 minutes after test solution injection, sweating was stimulated by injecting each animal intraperitoneally with 0.20 mL of 1 mg/mL pilocarpine.HCl in 0.9% aqueous sodium chloride. The appearance of blue-black spots within five minutes after stimulation by pilocarpine was the criterion for sweating. The criterion for the animals responding to the anticholinergic was absence of sweating on two or more tubercles of the treated foot. A 7X magnifying glass was used to enlarge the foot for evaluation.
As many concentrations were tested as needed to obtain two points with more than 50% but less than 100% of the animals responding and two points with less than 50% but more than 0% of the animals responding.
For some esters it was necessary to alter the concentration interval to obtain the appropriate spread of responses in a minimum of trials. […] Each compound was run at least twice. The average EC50 was used for comparison with other anticholinergics.

[2] = system: pupil light reflex of rabbit eye; assay: Rabbit abolition of light reflex assay (RALR), mydriasis
Text: In order to determine the potential for mydriasis produced by the anticholinergic antiperspirant compositions of our invention, the rabbit abolition of light reflex assay was employed. In this assay, solutions of test compounds are instilled in the eyes of rabbits and response to light stimulus followed as a function of time.
The test animals used were female, New Zealand albino rabbits which were 12 to 14 weeks old when first used for testing. A test group consisted of fifteen animals and could be used 8 to 10 weeks before the rabbits became too large to handle.
Prior to the first use of a rabbit group, a determination of the responsiveness of each pupil to a light stimulus was determined. Under room illumination provided by fluorescent tubes, the bilateral symmetry of the pupil light reflex was ascertained by directing a beam of light from a penlight-type of flashlight into each pupil. If proper response was present, the animals were subsequently used.
The mydriatic response to an anticholinergic was determined in the following manner. The animals were held in wooden restrainer boxes during the test. The distance between the mid-sagittal plane of one animal and that of the immediately adjacent animal was 11 inches. Into one conjunctival sac of each animal was installed 0.1 mL of a given concentration of the compound under test in 0.9% sodium chloride. […] Thus, for eucatropine derivatives, solutions were prepared to correspond to one percent eucatropine.HCl. After installation of the solution, the lids of the treated eye were held closed for one minute to prevent the loss of the test dose. After this time the lids were held open by gentle finger pressure, and the cornea and conjunctival sac irrigated with one mL of 0.9% aqueous sodium chloride applied in drops from a 10 mL syringe. The procedure was repeated in the other eye using 0.1 mL 0.9% saline as a control. Each rabbit was treated at two to three minutes following the preceding rabbit.
Observation of the rabbit eye pupil size was made at 30, 60 and 120 minutes after treatment by directing a penlight beam into each pupil. The response of both pupils to light was observed. Any degree of contraction of the pupil of the treated eye which was obviously less than that of the untreated eye was recorded as incomplete (partial) inhibition of the reflex. Failure of the pupil of the treated eye to contract in response to light was recorded as complete inhibition of the reflex. The responses of each rabbit were recorded. Both partial and complete inhibition were recorded as inhibited. The animals were not used again for at least 72 hours and the same eye was not used for treatment by test solutions in successive experiments.

[3] = esters synthesized by DCC method
[4] = esters synthesized by DCC method, fraction of animals with inhibition at 60 min, 1% solutions based on eucatropine
[5] = esters synthesized via acid chloride
[6] = esters synthesized via acid chloride, fraction of animals with inhibition at 60 min, 1% solutions based on eucatropine

Molecule | antiperspirant potency relative to eucatropine (in words) [1] | EC50 [1, 3] | RALR (60 min.) ([2]; rabbit, in vivo) | RALR (60 min.) [2, 4] | also measured
CC1CC(OC(=O)C(OC(=O)c2cnccn2)c2ccccc2)CC(C)(C)N1C.Cl (centres unmarked) | a reduction in EC50 over eucatropine | 11 mM | 0.80 |  | mydriasis in the rabbit eye (in words) ([2]; rabbit, in vivo): reduced mydriasis
CC1CC(OC(=O)C(OC(=O)c2cnc3ccccc3c2)c2ccccc2)CC(C)(C)N1C.Cl (centres unmarked) | a reduction in EC50 over eucatropine | 10 mM |  | 0.73 | mydriasis in the rabbit eye (in words) ([2]; compared with eucatropine): reduced mydriasis
CC1CC(OC(=O)C(OC(=O)c2ccc(N(C)C)cc2)c2ccccc2)CC(C)(C)N1C.Cl (centres unmarked) |  | 25 mM |  | 0.27 | 
CC1CC(OC(=O)C(OC(=O)c2ccnc3ccccc23)c2ccccc2)CC(C)(C)N1C.Cl (centres unmarked) | a reduction in EC50 over eucatropine |  |  | 0.60 | mydriasis in the rabbit eye (in words) ([2]; compared with eucatropine): reduced mydriasis
CC1CC(OC(=O)C(OC(=O)C2CCC2)c2ccccc2)CC(C)(C)N1C.Cl (centres unmarked) |  | 18 mM | 1.00 |  | 
CC1CC(OC(=O)C(OC(=O)C2CCCCC2)c2ccccc2)CC(C)(C)N1C.Cl (centres unmarked) |  | 41 mM |  |  | EC50 [1, 5]: 43 mM
CC1CC(OC(=O)C(OC(=O)CC2CCCCC2)c2ccccc2)CC(C)(C)N1C.Cl (centres unmarked) |  | 87 mM | 0.67 |  | 
CC1CC(OC(=O)C(OC(=O)CC2CCCC2)c2ccccc2)CC(C)(C)N1C.Cl (centres unmarked) |  | 67 mM | 1.00 |  | 
CC1CC(OC(=O)C(OC(=O)C2CC2)c2ccccc2)CC(C)(C)N1C.Cl (centres unmarked) |  | 4.7 mM and 4.8 mM | 1.00 |  | EC50 [1, 5]: 36 mM
CC1CC(OC(=O)C(OC(=O)c2ccncc2)c2ccccc2)CC(C)(C)N1C.Cl (centres unmarked) | only a slight decrease in antiperspirant potency relative to eucatropine | 5.2 mM | 0.00 |  | mydriasis in the rabbit eye (in words) ([2]; rabbit, in vivo): no mydriasis
CC1CC(OC(=O)C(OC(=O)c2ccccn2)c2ccccc2)CC(C)(C)N1C.Cl (centres unmarked) | only a slight decrease in antiperspirant potency relative to eucatropine | 2 mM | 0.40 |  | 
CC1CC(OC(=O)C(OC(=O)C(Cl)c2ccccc2)c2ccccc2)CC(C)(C)N1C.Cl (centres unmarked) | equalled or nearly equalled that of the parent eucatropine | 1.4 mM |  |  | 
COc1ccc(C(=O)OC(C(=O)OC2CC(C)N(C)C(C)(C)C2)c2ccccc2)cc1.Cl (centres unmarked) |  | 16 mM |  |  | 
O=C(O)C1CCCC1 [Cyclopentanecarboxylate] |  | 78 mM | 0.67 |  | 
CC1CC(OC(=O)C(O)c2ccccc2)CC(C)(C)N1C (centres unmarked) [H, eucatropine] |  |  | 1.00 |  | EC50 ([1]; Mus musculus, sc, parent eucatropine (ester group H)): 7.2 mM; incomplete response (light reflex) in rabbits at 60 minutes ([2]; rabbit, in vivo): eight out of eight
CC(C)C(=O)O [Isobutyrate] |  | 1.6 mM | 0.88 |  | 
CC1CC(OC(=O)C(OC(=O)c2cccnc2)c2ccccc2)CC(C)(C)N1C.Cl (centres unmarked) [Nicotinate] | only a slight decrease in antiperspirant potency relative to eucatropine | 6.5 mM |  | 0.60 | 
CCCCCCCC(=O)OC(C(=O)OC1CC(C)N(C)C(C)(C)C1)c1ccccc1.Cl (centres unmarked) [Octanoate] |  | 11 mM |  | 0.93 | EC50 [1, 5]: 9.6 mM; RALR (60 min.) [2, 6]: 0.50
Cc1ccc(C(=O)OC(C(=O)OC2CC(C)N(C)C(C)(C)C2)c2ccccc2)cc1.Cl (centres unmarked) [p-Toluate] |  | 84 mM |  |  | 
Benzoate | more potent than eucatropine | 0.3 mM |  | 0.88 and 0.87 | EC50 [1, 5]: 25 mM; RALR (60 min.) [2, 6]: 0.20
Phenylacetate | equalled or nearly equalled that of the parent eucatropine | 5.3 mM |  | 1.00 | EC50 [1, 5]: 78 mM; RALR (60 min.) [2, 6]: 0.47
